The record followed here is patent publication US8785470B2, “Heterocyclic compounds and uses thereof” (Infinity Pharmaceuticals, Inc., priority 2011, dated 2014).

The target of assay [1] is T1, PI3Kα (Homo sapiens, UniProt P42336).
T1 construct: purchased Millipore Corporation 14-602-K
Description: PI3-Kinase HTRF assay, PI3Kα. The assay is classed as biochemical. The note with it: bins Greater than 10 μM and Greater than 1 μM to 10 μM; 10 μM ATP, PIP2 at 10 μM; read-out: IC50 P13Kα. The text has this: A PI3-Kinase HTRF® assay kit (cat No. 33-016) purchased from Millipore Corporation was used to screen compounds provided herein. This assay used specific, high affinity binding of the GRPI pleckstrin homology (PH) domain to PIP3, the product of a Class 1A or 1B PI3 Kinase acting on its physiological substrate PIP2. During the detection phase of the assay, a complex was generated between the GST-tagged PH domain and biotinylated short chain PIP3. The biotinylated PIP3 and the GST-tagged PH domain recruited fluorophores (Streptavidin-Allophycocyanin and Europium-labeled anti-GST respectively) to form the fluorescence resonance energy transfer (FRET) architecture, generating a stable time-resolved FRET signal. The FRET complex was disrupted in a competitive manner by non-biotinylated PIP3, a product formed in the PI3 Kinase assay.
PI3 Kinase α, β, γ and δ activity was assayed using the PI3 Kinase HTRF® assay kit (catalogue No. 33-016) purchased from Millipore Corporation. Purified recombinant PI3Kα (catalogue No. 14-602-K), PI3Kβ (catalogue No. 14-603-K), PI3Kγ (catalogue No. 14-558-K) and PI3Kδ (catalogue No. 14-604-K) were obtained from Millipore Corporation. Purified recombinant PI3K enzyme was used to catalyze the phosphorylation of phosphatidylinositol 4,5-bisphosphate (PIP2 at 10 μM) to phosphatidylinositol 3,4,5-trisphosphate (PIP3) in the presence of 10 μM ATP. The assay was carried out in 384-well format and detected using a Perkin Elmer EnVision Xcite Multilabel Reader. Emission ratios were converted into percent inhibitions and imported into GraphPad Prism software. The concentration necessary to achieve inhibition of enzyme activity by 50% (IC50) was calculated using concentrations ranging from 20 μM to 0.1 nM (12-point curve). IC50 values were determined using a nonlinear regression model available in GraphPad Prism 5. […]
(In TR-FRET formats the signal depends on donor and acceptor labels being close together.)

Assay [2] has as its system Balb/c splenic B cells. Put plainly: B cell activation and proliferation assay. The format is cell-based. The following applies: Mus musculus, read-out: B cell proliferation EC50. The procedure: The ability of one or more subject compounds to inhibit B cell activation and proliferation is determined according to standard procedures known in the art. For example, an in vitro cellular proliferation assay is established that measures the metabolic activity of live cells. The assay is performed in a 96 well microtiter plate using Alamar Blue reduction. Balb/c splenic B cells are purified over a Ficoll-Paque™ PLUS gradient followed by magnetic cell separation using a MACS B cell Isolation Kit (Miletenyi). Cells are plated in 90 μl at 50.000 cells/well in B Cell Media (RPMI+10% FBS+Penn/Strep+50 μME5 mM HEPES). A compound provided herein is diluted in B Cell Media and added in a 10 μl volume. Plates are incubated for 30 min at 37° C. and 5% CO2 (0.2% DMSO final concentration). A 50 μl B cell stimulation cocktail is then added containing either 10 μg/ml LPS or 5 μg/ml F(ab′)2 Donkey anti-mouse IgM plus 2 ng/ml recombinant mouse IL4 in B Cell Media. Plates are incubated for 72 hours at 37° C. and 5% CO2. A volume of 15 μL of Alamar Blue reagent is added to each well and plates are incubated for 5 hours at 37° C. and 5% CO2. Alamar Blue fluoresce is read at 560Ex/590Em, and IC50 or EC50 values are calculated using GraphPad Prism 5.

The mark [3] stands for this setting: column bins 1 μM to 100 nM (given as 100-1000) and Less than 100 nM.

Like-named read-outs stand apart in the source and are kept apart here.

T1 sequence (P42336 whole entry): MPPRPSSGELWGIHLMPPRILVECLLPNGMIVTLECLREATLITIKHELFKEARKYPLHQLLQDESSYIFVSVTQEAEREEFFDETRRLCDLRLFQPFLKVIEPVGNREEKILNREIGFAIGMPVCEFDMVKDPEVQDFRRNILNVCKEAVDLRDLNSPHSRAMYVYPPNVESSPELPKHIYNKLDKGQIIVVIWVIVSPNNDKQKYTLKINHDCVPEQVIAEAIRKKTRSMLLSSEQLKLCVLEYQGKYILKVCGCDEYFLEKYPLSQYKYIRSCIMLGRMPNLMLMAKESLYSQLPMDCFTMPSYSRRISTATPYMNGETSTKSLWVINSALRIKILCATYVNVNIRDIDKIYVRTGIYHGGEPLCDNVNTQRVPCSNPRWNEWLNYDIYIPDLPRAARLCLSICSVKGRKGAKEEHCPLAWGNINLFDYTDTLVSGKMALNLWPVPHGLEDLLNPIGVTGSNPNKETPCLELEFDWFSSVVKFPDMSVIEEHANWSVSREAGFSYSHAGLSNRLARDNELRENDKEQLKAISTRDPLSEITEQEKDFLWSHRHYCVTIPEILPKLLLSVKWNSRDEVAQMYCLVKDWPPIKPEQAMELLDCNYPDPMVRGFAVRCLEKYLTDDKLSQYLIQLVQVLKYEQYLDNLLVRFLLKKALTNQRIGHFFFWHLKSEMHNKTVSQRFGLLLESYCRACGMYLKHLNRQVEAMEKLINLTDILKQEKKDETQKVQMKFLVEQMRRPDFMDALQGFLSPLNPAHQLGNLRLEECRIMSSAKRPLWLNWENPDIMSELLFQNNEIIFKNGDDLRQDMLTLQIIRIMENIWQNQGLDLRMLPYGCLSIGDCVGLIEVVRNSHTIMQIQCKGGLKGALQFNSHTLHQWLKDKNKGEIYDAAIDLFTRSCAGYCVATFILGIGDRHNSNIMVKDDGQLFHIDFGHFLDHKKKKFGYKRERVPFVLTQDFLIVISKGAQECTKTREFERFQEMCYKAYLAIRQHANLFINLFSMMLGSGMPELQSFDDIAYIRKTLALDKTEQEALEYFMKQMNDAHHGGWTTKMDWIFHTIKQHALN
T1 sequence (P27986 whole entry partner): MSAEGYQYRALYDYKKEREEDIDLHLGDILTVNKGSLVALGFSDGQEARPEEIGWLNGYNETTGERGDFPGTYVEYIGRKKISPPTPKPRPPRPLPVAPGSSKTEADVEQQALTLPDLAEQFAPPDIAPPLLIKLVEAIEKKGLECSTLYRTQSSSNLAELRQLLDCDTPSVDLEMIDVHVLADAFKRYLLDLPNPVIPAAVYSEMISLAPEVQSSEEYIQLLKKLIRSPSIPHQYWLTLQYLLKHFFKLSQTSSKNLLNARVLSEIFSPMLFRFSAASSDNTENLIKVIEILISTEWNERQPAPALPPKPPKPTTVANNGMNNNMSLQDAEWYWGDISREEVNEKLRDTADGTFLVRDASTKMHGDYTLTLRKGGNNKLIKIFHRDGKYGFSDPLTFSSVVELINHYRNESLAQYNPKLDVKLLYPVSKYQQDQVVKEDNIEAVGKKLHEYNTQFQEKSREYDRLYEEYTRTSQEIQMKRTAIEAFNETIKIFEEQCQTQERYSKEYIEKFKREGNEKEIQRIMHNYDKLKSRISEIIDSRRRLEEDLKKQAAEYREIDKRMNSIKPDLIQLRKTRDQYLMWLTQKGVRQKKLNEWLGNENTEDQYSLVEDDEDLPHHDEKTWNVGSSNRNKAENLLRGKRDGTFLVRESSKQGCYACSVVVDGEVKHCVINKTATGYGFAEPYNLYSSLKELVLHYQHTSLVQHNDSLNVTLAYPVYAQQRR

Broadly, the IC50 is the concentration that gives 50% inhibition. With `CCOc1nc(-c2cnc(N)nc2N[C@@H](C)c2cc3cccc(Cl)c3c(=O)n2-c2ccccc2)cs1` [Compound 369], the IC50 in assay [1] lay in the range of 1 to 10 µM. Also, the EC50 in assay [2] (setting [3]) was below 0.1 µM. Take `COc1ncc(-c2cccc3cc([C@H](C)Nc4nc(N)ncc4C(F)(F)F)n(-c4ccccc4)c(=O)c23)cn1` [Compound 12]: the EC50 in assay [2] (setting [3]) was below 0.1 µM. Consider `C[C@H](Nc1nc(N)ncc1C#N)c1cc2cccc(-c3ccnnc3)c2c(=O)n1-c1ccccc1` [Compound 57], for which the IC50 in assay [1] is 1 to 10 µM. In addition, the EC50 in assay [2] (setting [3]) was below 0.1 µM.

Take `COc1cc(-c2cccc3cc([C@H](C)Nc4nc(N)ncc4-c4ccc(O)c(F)c4)n(-c4ccccc4)c(=O)c23)ccn1` [Compound 159]: the EC50 in assay [2] (setting [3]) was below 0.1 µM. In the case of `Cc1cc(-c2cccc3cc([C@H](C)Nc4nc(N)ncc4C#N)n(-c4ccccc4)c(=O)c23)cn(C)c1=O` [Compound 231], in assay [1], the IC50 was 1 to 10 µM. Further, the EC50 in assay [2] (setting [3]) is below 0.1 µM. Consider `C[C@H](Nc1nc(N)ncc1C(=O)N(C)C)c1cc2cccc(Cl)c2c(=O)n1-c1ccccc1` [Compound 199], for which, in assay [1], the IC50 was 1 to 10 µM. For the same compound, the EC50 in assay [2] (setting [3]) was below 0.1 µM. `COc1cc(-c2cccc3cc([C@H](C)Nc4nc(N)ncc4C#N)n(C4CC4)c(=O)c23)ccn1` [Compound 107]: the EC50 in assay [2] (setting [3]) was below 0.1 µM. Turning to `COc1cc(-c2cccc3cc([C@H](C)Nc4nc(N)ncc4C(=O)N4CC(F)(F)C4)n(-c4ccccc4)c(=O)c23)ccn1` [Compound 432], in assay [2] (setting [3]), the EC50 is 0.1 to 1 µM. With `C[C@H](Nc1nc(N)ncc1-c1ncco1)c1cc2cccc(Cl)c2c(=O)n1-c1ccccc1` [Compound 365], in assay [1], the IC50 is 1 to 10 µM. Moreover, in assay [2] (setting [3]), the EC50 is below 0.1 µM. As for `COc1cncc(-c2cccc3cc([C@H](C)Nc4nc(N)ncc4C#N)n(C4CC4)c(=O)c23)c1` [Compound 106], the EC50 in assay [2] (setting [3]) is below 0.1 µM. For the compound `Cc1cc(N[C@@H](C)c2cc3cccc(Cl)c3c(=O)n2-c2ccccc2)nc(N)n1` [Compound 92, (S)-3-(1-((2-amino-6-methylpyrimidin-4-yl)amino)ethyl)-8-chloro-2-phenylisoquinolin-1(2H)-one], in assay [2] (setting [3]), the EC50 was in the range of 0.1 to 1 µM.

Regarding `C[C@H](Nc1ncnc(N)c1[N+](=O)[O-])c1cc2cccc(Cl)c2c(=O)n1-c1ccccc1` [Compound 129], the EC50 in assay [2] (setting [3]) was below 0.1 µM. Regarding `COc1cc(-c2cccc3cc([C@@H](C)Nc4nc(N)ncc4C#N)n(-c4ccccc4)c(=O)c23)ccn1` [Compound 380], in assay [2] (setting [3]), the EC50 is below 0.1 µM. On to `COc1ncc(-c2cccc3cc([C@H](C)Nc4nc(N)ncc4C(F)(F)F)n(-c4cccc(F)c4)c(=O)c23)cn1` [Compound 31], for which the EC50 in assay [2] (setting [3]) was below 0.1 µM. For the compound `COc1cc(-c2cccc3cc([C@H](C)Nc4nc(N)ncc4C(=O)N(C)C)n(-c4ccccc4)c(=O)c23)ccn1` [Compound 112], in assay [2] (setting [3]), the EC50 is below 0.1 µM. `C[C@H](Nc1nc(N)ncc1C#N)c1cc2cccc(Oc3ccccc3)c2c(=O)n1-c1ccccc1` [Compound 151]: the EC50 in assay [2] (setting [3]) is below 0.1 µM. Regarding `C[C@H](Nc1nc(N)ncc1C#N)c1cc2cccc(Cl)c2c(=O)n1-c1ccccc1F` [Compound 267], in assay [1], the IC50 was 1 to 10 µM.

For `C[C@H](Nc1cc(N)ncc1C(N)=O)c1cc2cccc(Cl)c2c(=O)n1-c1ccccc1` [Compound 431], the EC50 in assay [2] (setting [3]) was below 0.1 µM. For the compound `C[C@H](Nc1nc(N)ncc1C#N)c1cc2cccc(-c3cnc4[nH]ccc4c3)c2c(=O)n1-c1cccc(F)c1` [Compound 25], the EC50 in assay [2] (setting [3]) was below 0.1 µM. Turning to `C[C@H](Nc1nc(N)ncc1C#N)c1cc2cccc(Cl)c2c(=O)n1-c1ccc(F)cc1F` [Compound 255], in assay [1], the IC50 lay in the range of 1 to 10 µM. `COc1cc(-c2cccc3cc([C@H](C)Nc4nc(N)ncc4-c4ccc(F)c(O)c4)n(-c4ccccc4)c(=O)c23)ccn1` [Compound 163]: the EC50 in assay [2] (setting [3]) lay in the range of 0.1 to 1 µM. Consider `C[C@H](Nc1nc(N)ncc1C#N)c1cc2cccc(-c3cccc(F)c3)c2c(=O)n1-c1ccccc1` [Compound 33], for which the IC50 in assay [1] was 1 to 10 µM. As for `C[C@H](Nc1nc(N)ncc1C(=O)N1CCC1)c1cc2cccc(-c3cnn(C)c3)c2c(=O)n1-c1ccccc1` [Compound 204], the EC50 in assay [2] lay within 1 to 10 µM. As to `Nc1nccc(Cl)n1` [Compound 79, 2-amino-4-chloro-pyrimidine], the EC50 in assay [2] (setting [3]) was below 0.1 µM.

For `C[C@H](Nc1nc(N)ncc1C#N)c1cc2cccc(-c3cncc(N(C)C)c3)c2c(=O)n1-c1ccccc1` [Compound 96], the EC50 in assay [2] (setting [3]) is below 0.1 µM. Consider `C[C@H](Nc1nc(N)ncc1C#N)c1cc2cccc(Cl)c2c(=O)n1-c1cc(F)ccc1F` [Compound 264], for which the IC50 in assay [1] is 1 to 10 µM. Consider `COc1nc(-c2cnc(N)nc2N[C@@H](C)c2cc3cccc(Cl)c3c(=O)n2-c2ccccc2)cs1` [Compound 223], for which the EC50 in assay [2] is below 0.1 µM. Turning to `C[C@H](Nc1nc(N)ncc1C#N)c1cc2cccc(-c3cnc4ccccc4c3)c2c(=O)n1-c1ccccc1` [Compound 50], in assay [2] (setting [3]), the EC50 was below 0.1 µM. Still for that read-out and setting: with `C[C@H](Nc1nc(N)ncc1C#N)c1cc2cccc(Cl)c2c(=O)n1-c1cccnc1` [Compound 306] the figure was below 0.1 µM.

For the compound `COc1cc(-c2cccc3cc([C@H](C)Nc4nc(N)ncc4-c4cccnc4)n(-c4ccccc4)c(=O)c23)ccn1` [Compound 133], the IC50 in assay [1] was 1 to 10 µM. With `COc1cncc(-c2cccc3cc([C@H](C)Nc4nc(N)ncc4C#N)n(-c4ccccc4)c(=O)c23)c1` [Compound 9, (S)-2-amino-4-((1-(8-(5-methoxypyridin-3-yl)-1-oxo-2-phenyl-1,2-dihydroisoquinolin-3-yl)ethyl)amino)pyrimidine-5-carbonitrile], in assay [2] (setting [3]), the EC50 was below 0.1 µM.

On to `Cc1ncc(-c2cnc(N)nc2N[C@@H](C)c2cc3cccc(Cl)c3c(=O)n2-c2ccccc2)s1` [Compound 372], for which the EC50 in assay [2] (setting [3]) is below 0.1 µM. Take `Cc1nc(N)nc(N[C@@H](C)c2cc3cccc(Cl)c3c(=O)n2-c2ccccc2)c1C#N` [Compound 89, (S)-2-amino-4-(1-(8-chloro-1-oxo-2-phenyl-1,2-dihydroisoquinolin-3-yl)ethylamino)-6-methylpyrimidine-5-carbonitrile]: in assay [2] (setting [3]), the EC50 was below 0.1 µM. Regarding `C[C@H](Nc1nc(N)ncc1C#N)c1cc2cccc(-c3ccnc(O)c3)c2c(=O)n1-c1ccccc1` [Compound 130], in assay [2] (setting [3]), the EC50 was below 0.1 µM. Take `COc1cc(-c2cccc3cc([C@H](C)Nc4nc(N)ncc4-c4cc(O)cc(F)c4)n(-c4ccccc4)c(=O)c23)ccn1` [Compound 161]: in assay [2] (setting [3]), the EC50 was in the range of 0.1 to 1 µM. For the compound `C[C@H](Nc1nc(N)ncc1C#N)c1cc2cccc(-c3cnc4[nH]ccc4c3)c2c(=O)n1-c1ccccc1` [Compound 47], the EC50 in assay [2] (setting [3]) is below 0.1 µM. In the case of `COc1ncc(-c2cccc3cc([C@H](C)Nc4nc(N)ncc4C#N)n(-c4cccc(F)c4)c(=O)c23)cn1` [Compound 22], the EC50 in assay [2] (setting [3]) was below 0.1 µM.

As to `COc1cncc(-c2cccc3nc([C@H](C)Nc4nc(N)ncc4C#N)n(-c4ccccc4)c(=O)c23)c1` [Compound 65], in assay [1], the IC50 fell in the range of 1 to 10 µM.

Turning to `Cc1ncc(-c2cccc3nc([C@H](C)Nc4nc(N)ncc4C#N)n(-c4ccccc4)c(=O)c23)cn1` [Compound 63, (S)-2-amino-4-((1-(5-(2-methylpyrimidin-5-yl)-4-oxo-3-phenyl-3,4-dihydroquinazolin-2-yl)ethyl)amino)pyrimidine-5-carbonitrile], the EC50 in assay [2] (setting [3]) was below 0.1 µM.

As for `C[C@H](Nc1nc(N)ncc1C#N)c1cc2cccc(C#CCCC(=O)N3CCOCC3)c2c(=O)n1-c1ccccc1` [Compound 193], the EC50 in assay [2] (setting [3]) was below 0.1 µM. On the same count and under the same terms, with `C[C@H](Nc1nc(N)ncc1C#N)c1cc2cccc(Cl)c2c(=O)n1C1CCCC1` [Compound 297] the figure was below 0.1 µM.
